Here are results for one molecule from patent publication US20050019855A1, “Methods to increase the productivity of meterologous gene expression” (priority 2001, published 2005).

Molecules are shown by their SMILES.

Common to all, as to format: cell-based, Nicotiana tabacum
Assay [1] deals with tobacco protoplasts. The experiment in a line: Transient expression transport assay: secretion index and total activity of α-amylase cargo molecules. The text has this:
(§1) Tobacco leaf protoplasts were electroporated as described (Denecke and Vitale, 1995), and plasmid concentrations used are given in the figure legends. Harvesting of cells and culture medium as well as the enzymatic assays were done as described previously (Denecke and Vitale, 1995; Crofts et al., 1999; Leborgne-Castel et al., 1999). Equal volumes of cells and medium were loaded on protein gel blots or analysed via enzymatic assays to determine the fraction of the marker proteins inside and outside of the cells and to calculate the secretion index (Denecke et al., 1990). Membrane recruitment was assessed by an osmotic shock procedure described previously (Denecke et al., 1990; Denecke et al., 1992).
Protoplasts were extracted in α-amylase extraction buffer (Crofts et al., 1999) via sonication for 5 seconds. In all cases, extracts were cleared by 10 min centrifugation at 2500 g at 4° C. and the supernatant was recovered. α-amylase activity was determined as described (Crofts et al., 1999).
It is established that the molecular target of BFA is the guanosine nucleotide exchange factor for ARF1p, resulting in a stabilisation of an abortive complex with the GDP-bound form of ARF1p at the Golgi membrane. To test if inhibition of retrograde and anterograde transport can be dissected, we decided to utilise the secreted cargo molecule α-amylase (amy) and its derivative carrying an ER retention signal (amy-HDEL), which permits a quantitative analysis of transport rates in tobacco leaf protoplasts (FIGS. 1-6). We have shown before that the secretion index (SI), the ratio between extra- and intracellular activities, provides a simple way to compare relative transport rates at a defined time-point. In addition, amy and amy-HDEL have identical specific enzyme activity and stability throughout the secretory pathway. While both molecules are expected to have identical ER export properties (FIG. 16, route 1), only amy-HDEL can undergo retrograde transport from the Golgi (FIG. 16, route 2). If saturation of the HDEL receptor occurs, amy-HDEL is expected to reach the cell surface in the same manner as amy (FIG. 16, routes 3 and 7). We now tested the influence of different concentrations of BFA on the transport of either cargo molecules via transient gene expression in tobacco protoplasts. […] This effect is less obvious for amy-HDEL.

The subject of assay [2] is stably transformed tobacco cells. As to the kind of experiment: Transport time course in protoplasts from stably transformed tobacco cells incubated with BFA. Conditions: stable transformants, 30 μg/ml BFA, 240 minute period (FIG. 18). The protocol:
The experiment shown in FIG. 17 was conducted using a standard transient expression assay with a 24-hour incubation period. This is a long time-period and it is possible that prolonged inhibition of the recycling of essential COPII vesicle budding components leads eventually to an inhibition of anterograde transport. […] To test this, we have carried out a transport experiment in which stably transformed tobacco cells were incubated for different time-periods in the presence of BFA. Under these circumstances, protoplasts contain a steady state level of amy or amy-HDEL from the very beginning of the experiment. This steady state level is very high for amy-HDEL, thus secretion of the cargo into the medium should be detected with high sensitivity if BFA first inhibits […] retrograde transport while COPII anterograde transport is still efficient. […] It was not possible to detect a transient induction of amy-HDEL secretion prior to the inhibition of amy secretion.

For assay [3], the system named is tobacco protoplasts. The experiment in a line: Transient expression transport assay for phytepsin, read by protein gel blot of medium and cells. Particulars: increasing BFA concentration (FIG. 22).
From the text: Transient expression experiment showing the influence of BFA (indicated above each lane in μg/ml final concentration) on secretion to the medium (M), intracellular retention (C) and the partitioning between processed (closed arrows) and un-processed (open arrows) forms of phyteposin. Note that BFA inhibits both secretion and intracellular processing of phytepsin.
as §1
Samples were loaded after twofold dilution with 2×SDS-PAGE loading buffer (200 mM Tris-Cl, pH 8.8, 5 mM EDTA, 1 M sucrose, and 0.1% bromophenol blue). Proteins in SDS-polyacrylamide gels were transferred onto a nitrocellulose membrane and then blocked with PBS, 0.5% Tween 20, and 5% milk powder for 1 hr. […]

Setting [4] is: 24-hour incubation, increasing BFA concentration (FIG. 17).

As for `C[C@H]1CCC/C=C/[C@@H]2C[C@H](O)C[C@H]2[C@H](O)/C=C/C(=O)O1` [BFA, Brefeldin A], the “total activity (medium+cells) of amy-HDEL” value in assay [1] (24-hour incubation, BFA present (FIG. 17 lower panel)) is listed as “slightly increased total activity for amy-HDEL”. Also, the “total amount of α-amylase (amy) produced (medium+cells)” value in assay [1] (24-hour incubation, BFA treatment (FIG. 17)) was “reduction in the total amount of α-amylase”. For the same molecule, in assay [1] (setting [4]), the “secretion of amy-HDEL, secretion index” value was “hardly influenced by the drug” and the “secretion of α-amylase (amy), secretion index” value was “concentration-dependent inhibition of α-amylase secretion”. Also, the “secretion of amy-spo to the medium” value in assay [1] (increasing BFA concentration (FIG. 25B)) is “does not induce secretion of the cargo molecule”. Also, in assay [2], the “secretion of amy, secretion index over time” value is “only inhibits the secretion of amy”; the “secretion of amy-HDEL, secretion index over time” value was “slightly induced after prolonged incubation (80 minutes and more)”. Also, in assay [3], the “intracellular processing of the phytepsin precursor” value is “inhibits processing of the phytepsin precursor” and the “secretion of phytepsin precursor to the medium” value is reported as “secretion was inhibited at the lowest concentration of BFA used”.
